Converted amounts (≈) assume the structure as drawn.

Consider three compounds from ChEMBL document CHEMBL5154661, “Novel 2-phenyl-3-(Pyridin-2-yl) thiazolidin-4-one derivatives as potent inhibitors for proliferation of osteosarcoma cells in vitro and in vivo” (Eur J Med Chem, 2022).

One data set relates to 143B. The experiment in a line: Antiproliferative activity against human 143B cells assessed as cell growth inhibition at 1 uM measured after 72 hrs by CCK-8 assay relative to control. The data set is classed as functional.
Data set [1] can be described thus: Kinetic solubility of compound at pH 6.8 by turbidimetry method. As to conditions: buffer, read-out: Kinetic_solubility. Type of data set: physicochemical.
Data set [2] relates to HOS-TE85. The data set is described as follows: Antiproliferative activity against human MNNG/HOS cells assessed as cell growth inhibition measured after 72 hrs by CCK-8 assay. The data set is classed as functional, cell-based. As to conditions: HOS-TE85, 72 h.
The next data set relates to U2OS. The experiment in a line: Antiproliferative activity against human U2OS cells assessed as cell growth inhibition at 1 uM measured after 72 hrs by CCK-8 assay relative to control. Type of data set: functional.
A short description of data set [3]: Kinetic solubility of compound at pH 7.4 by turbidimetry method. Type of data set: physicochemical. As to conditions: buffer, read-out: Kinetic_solubility.
Another data set has as its system HOS. The experiment in a line: Antiproliferative activity against human HOS cells assessed as cell growth inhibition at 1 uM measured after 72 hrs by CCK-8 assay relative to control. The data set is classed as functional.
The nature of data set [4]: Microsomal stability in rat liver microsomes assessed as intrinsic clearance at 0.1 uM incubated for 10 mins in presence of NADPH by LC-MS/MS analysis. The data set is classed as ADME, Microsome.
Data set [5] deals with SJSA-1. The data set is described as follows: Antiproliferative activity against human SJSA-1 assessed as cell growth inhibition at 1 uM measured after 72 hrs by CCK-8 assay relative to control. The data set is classed as functional.
Data set [6] deals with MG-63. The data set is described as follows: Antiproliferative activity against human MG-63 cells assessed as cell growth inhibition at 1 uM measured after 72 hrs by CCK-8 assay relative to control. The data set is classed as functional.
Data set [7] in a line: Microsomal stability in mouse liver microsomes assessed as intrinsic clearance at 0.1 uM incubated for 10 mins in presence of NADPH by LC-MS/MS analysis. The data set is classed as ADME, Microsome.
Data set [8] in a line: Microsomal stability in human liver microsomes assessed as intrinsic clearance at 0.1 uM incubated for 10 mins in presence of NADPH by LC-MS/MS analysis. The data set is classed as ADME, Microsome.
The subject of data set [9] is HOS-TE85. The data set is described as follows: Antiproliferative activity against human MNNG/HOS cells assessed as cell growth inhibition at 1 uM measured after 72 hrs by CCK-8 assay relative to control. The data set is classed as functional.
Data set [10] relates to SJSA-1. The data set is described as follows: Antiproliferative activity against human SJSA-1 cells assessed as cell growth inhibition measured after 72 hrs by CCK-8 assay. The data set is classed as functional, cell-based. As to conditions: SJSA-1, 72 h.
Data set [11] concerns MG-63. The experiment in a line: Antiproliferative activity against human MG-63 cells assessed as cell growth inhibition measured after 72 hrs by CCK-8 assay. As to conditions: MG-63, 72 h. The data set is classed as functional, cell-based.
In data set [12] the test system is HOS-TE85. The experiment in a line: Antitumor activity against human MNNG/HOS cells xenografted in female BALB/c nude mouse assessed as tumor growth inhibition at 30 mg/kg, po administered daily for 18 days relative to control. Type of data set: functional. As to conditions: HOS-TE85, 432 h, time 18 day, read-out: TGI.
A short description of data set [13]: Toxicity in BALB/c nude mouse xenografted with human MNNG/HOS cells assessed as body weight loss at 62.5 mg/kg, ip administered twice per day for 18 days. The data set is classed as organism-based, HOS-TE85. As to conditions: in vivo, 432 h, time 18 day.

Take `COc1ccc(F)cc1N1C(=O)CSC1c1cccc(C(=O)NCCCCc2ccccc2)c1` (configuration not stated): the inhibition at 1 µM with 143B is 62%; with U2OS it was 32%; with HOS, 46%; with SJSA-1 [5], 76%; with MG-63 [6], 86%; with HOS-TE85 [9], 95%. In addition, the solubility kinetic in [1] and in data set [3] was 10 µM (≈ 4.79 µg/mL) in each case. For the same compound, the IC50 in the data set on HOS-TE85 [2] turned out to be 8.8 nM. The “intrinsic clearance (CLint)” value turned out to be 2298 mL/min/g in data set [4], 2247 mL/min/g in data set [7] and 1253 mL/min/g in data set [8].

Turning to `Cc1ccnc(N2C(=O)CSC2c2cccc(C(=O)NCCCCn3cccn3)c2)c1` (racemic), the IC50 in the data set with SJSA-1 [10] was 33.2 nM; in the data set on HOS-TE85 [2] it was 19.6 nM; in the data set on MG-63 [11], 38.9 nM. The solubility kinetic in data set [1] and in [3] was 50 µM (≈ 21.8 µg/mL) in each case. The “intrinsic clearance (CLint)” value was 1022 mL/min/g in data set [4], 392 mL/min/g in data set [7] and 128.7 mL/min/g in data set [8].

Turning to `CNC(=O)c1cc(Oc2ccc(NC(=O)Nc3ccc(Cl)c(C(F)(F)F)c3)cc2)ccn1` [SORAFENIB], the inhibition in vivo at 30 mg/kg in the data set with HOS-TE85 [12] came out at 44.2%. Also, in data set [13], the Activity entry is listed as “Non-Toxic”.
